Values after ≈ are worked out from the molar mass of the structure shown.
Legend:
Staphylococcus aureus = test: Antibacterial activity against Staphylococcus aureus measured after 24 hrs; type: functional
Bacillus subtilis = test: Antibacterial activity against Bacillus subtilis measured after 24 hrs; type: functional
Escherichia coli = test: Antibacterial activity against Escherichia coli measured after 24 hrs; type: functional
Pseudomonas fluorescens = test: Antibacterial activity against Pseudomonas fluorescens measured after 24 hrs; type: functional
[1] = Cytotoxicity against HFF measured after 72 hrs by MTT assay; type: cell-based; conditions: human, HFF cells
[2] = Cytotoxicity against human HL-7702 cells measured after 72 hrs by MTT assay; type: cell-based; conditions: HL-7702 (L02) cells

| SMILES | MIC (Staphylococcus aureus) [µg/mL] | MIC (Bacillus subtilis) [µg/mL] | MIC (Escherichia coli) [µg/mL] | MIC (Pseudomonas fluorescens) [µg/mL] | CC50 at 72 h [1] [µg/mL] | CC50 at 72 h [2] [µg/mL] |
| --- | --- | --- | --- | --- | --- | --- |
| C=C1[C@H](O)CC[C@]2(C)c3ccc(C(C)C)c(OC)c3CC[C@@H]12 | 100 (≈ 333 µM) | 100 (≈ 333 µM) | 100 (≈ 333 µM) | 100 (≈ 333 µM) |  |  |
| COc1c(C(C)C)ccc2c1CC[C@H]1C3=C(CC[C@]21C)C(=O)OC3 | 100 (≈ 306 µM) | 100 (≈ 306 µM) | 100 (≈ 306 µM) | 100 (≈ 306 µM) |  |  |
| CCOCOC[C@]12CCC(=C(SC)SC)C(=O)[C@@H]1CCc1c2ccc(C(C)C)c1OC | 6.3 (≈ 13.6 µM) | 0.8 (≈ 1.72 µM) | 6.3 (≈ 13.6 µM) | 1.6 (≈ 3.44 µM) | 11.4 (≈ 24.5 µM) | 13.2 (≈ 28.4 µM) |
| COc1c(C(C)C)ccc2c1CC=C1C3=C(CCC12C)C(=O)OC3 (single isomer, unassigned) | 75 (≈ 231 µM) | 100 (≈ 308 µM) | 75 (≈ 231 µM) | 100 (≈ 308 µM) |  |  |
| COc1cccc2c1CC[C@H]1[C@H]3COC(=O)[C@@]3(O)C(=O)C[C@]21C | 1.6 (≈ 5.06 µM) | 0.8 (≈ 2.53 µM) | 1.6 (≈ 5.06 µM) | 1.6 (≈ 5.06 µM) | > 50 | 47.5 (≈ 150 µM) |
| COC(=O)[C@]1(C)CCC[C@]2(C)c3ccc(C(C)C)c(NC(=O)Cn4cc(-c5ccc6ccccc6c5)nn4)c3CC[C@@H]12 | 75 (≈ 133 µM) | 50 (≈ 88.5 µM) | 25 (≈ 44.3 µM) | 25 (≈ 44.3 µM) |  |  |
| COC(=O)c1nnn(CC(=O)Nc2c(C(C)C)ccc3c2CC[C@H]2[C@](C)(C(=O)OC)CCC[C@]32C)c1C(=O)OC | 25 (≈ 45.1 µM) | 75 (≈ 135 µM) | 25 (≈ 45.1 µM) | 50 (≈ 90.1 µM) |  |  |
| COc1c(C(C)C)ccc2c1CC[C@H]1[C@@H](O)CCC[C@]21C | 100 (≈ 347 µM) | 100 (≈ 347 µM) | 75 (≈ 260 µM) | 100 (≈ 347 µM) |  |  |
| CC(C)(C)C(=O)OC[C@H]1[C@H](O)CC[C@]2(C)c3ccccc3CC[C@@H]12 | 25 (≈ 75.7 µM) | 50 (≈ 151 µM) | 25 (≈ 75.7 µM) | 25 (≈ 75.7 µM) |  |  |
| COC(=O)[C@]1(C)CCC[C@]2(C)c3ccc(C(C)C)c(OC)c3C(=O)C[C@@H]12 | 50 (≈ 139 µM) | 50 (≈ 139 µM) | 25 (≈ 69.7 µM) | 50 (≈ 139 µM) |  |  |
| COC(=O)[C@]1(C)CCC[C@]2(C)c3ccc(C(C)C)c(NC(=O)Cn4cc(-c5cccs5)nn4)c3CC[C@@H]12 | 12.5 (≈ 24 µM) | 6.3 (≈ 12.1 µM) | 50 (≈ 96 µM) | 6.3 (≈ 12.1 µM) |  |  |
| COC(=O)[C@]1(C)CCC[C@]2(C)c3ccc(C(C)C)c(NC(=O)Cn4cc(-c5cc(OC)cc(OC)c5)nn4)c3CC[C@@H]12 | 25 (≈ 43.5 µM) | 100 (≈ 174 µM) | 75 (≈ 130 µM) | 75 (≈ 130 µM) |  |  |
| COc1c(C(C)C)ccc2c1CC[C@H]1[C@H]3COC(=O)[C@@]3(O)CC[C@]21C | 75 (≈ 218 µM) | 100 (≈ 290 µM) | 100 (≈ 290 µM) | 100 (≈ 290 µM) |  |  |
| COc1cccc2c1CC[C@H]1[C@@H](CO)[C@H](O[Si](C)(C)C(C)(C)C)CC[C@]21C | 100 (≈ 256 µM) | 100 (≈ 256 µM) | 100 (≈ 256 µM) | 75 (≈ 192 µM) |  |  |
| COC(=O)[C@]1(C)CCC[C@]2(C)c3ccc(C(C)C)c(NC(=O)Cn4cc(-c5ccc([N+](=O)[O-])cc5)nn4)c3CC[C@@H]12 | 25 (≈ 44.7 µM) | 50 (≈ 89.3 µM) | 75 (≈ 134 µM) | 12.5 (≈ 22.3 µM) |  |  |
| CC(C)c1ccc2c(c1)CC[C@H]1[C@](C)(C(=O)O)CCC[C@]21C [DEHYDROABIETIC ACID] | 25 (≈ 83.2 µM) | 50 (≈ 166 µM) | 75 (≈ 250 µM) | 50 (≈ 166 µM) |  |  |
| COC(=O)[C@]1(C)CCC[C@]2(C)c3ccc(C(C)C)c(NC(=O)Cn4cc(-c5cncnc5)nn4)c3CC[C@@H]12 | 1.6 (≈ 3.1 µM) | 3.1 (≈ 6 µM) | 1.6 (≈ 3.1 µM) | 1.6 (≈ 3.1 µM) | 41.8 (≈ 80.9 µM) | 31.7 (≈ 61.4 µM) |
| COC(=O)[C@]1(C)CCC[C@]2(C)c3ccc(C(C)C)c(NC(=O)Cn4cc(-c5cccc(OC)c5)nn4)c3CC[C@@H]12 | 50 (≈ 91.8 µM) | 75 (≈ 138 µM) | 75 (≈ 138 µM) | 50 (≈ 91.8 µM) |  |  |
| COC(=O)[C@]1(C)CCC[C@]2(C)c3ccc(C(C)C)c(NC(=O)Cn4cc(-c5ccncc5)nn4)c3CC[C@@H]12 | 0.8 (≈ 1.55 µM) | 6.3 (≈ 12.2 µM) | 25 (≈ 48.5 µM) | 3.1 (≈ 6.01 µM) |  |  |
| COc1c(C(C)C)ccc2c1CC[C@H]1C3=C(CC[C@]21CO)C(=O)OC3 | 50 (≈ 146 µM) | 75 (≈ 219 µM) | 50 (≈ 146 µM) | 75 (≈ 219 µM) |  |  |
